For test [1], the target named is FGFR2 (Homo sapiens (Human), UniProt P21802). In words: FGFR Enzymatic Assay (FRET peptide phosphorylation), FGFR2. The format is biochemical. The following applies: pre-incubated for 4 hours. The protocol:
(§1) The inhibitor potency of the exemplified compounds was measured in an enzyme assay that measures peptide phosphorylation using FRET measurements to detect product formation. Inhibitors were serially diluted in DMSO and a volume of 0.5 μL was transferred to the wells of a 384-well plate.
(§2) The enzymes were purchased from Millipore or Invitrogen.
(§3) GraphPad prism3 was used to analyze the data.

The target in test [2] is FGFR3 enzyme (Homo sapiens (Human), UniProt P22607). The test can be described thus: FGFR Enzymatic Assay (FRET peptide phosphorylation), FGFR3. In kind it is biochemical. As to conditions: pre-incubated for 4 hours; for FGFR1/FGFR3 IC50 ratio / FGFR4/FGFR3 IC50 ratio: FGFR3 selectivity; for IC50: read-out: FGFR3 IC50. The protocol: as §1, §3
Sequence of FGFR3 enzyme (P22607 23-806): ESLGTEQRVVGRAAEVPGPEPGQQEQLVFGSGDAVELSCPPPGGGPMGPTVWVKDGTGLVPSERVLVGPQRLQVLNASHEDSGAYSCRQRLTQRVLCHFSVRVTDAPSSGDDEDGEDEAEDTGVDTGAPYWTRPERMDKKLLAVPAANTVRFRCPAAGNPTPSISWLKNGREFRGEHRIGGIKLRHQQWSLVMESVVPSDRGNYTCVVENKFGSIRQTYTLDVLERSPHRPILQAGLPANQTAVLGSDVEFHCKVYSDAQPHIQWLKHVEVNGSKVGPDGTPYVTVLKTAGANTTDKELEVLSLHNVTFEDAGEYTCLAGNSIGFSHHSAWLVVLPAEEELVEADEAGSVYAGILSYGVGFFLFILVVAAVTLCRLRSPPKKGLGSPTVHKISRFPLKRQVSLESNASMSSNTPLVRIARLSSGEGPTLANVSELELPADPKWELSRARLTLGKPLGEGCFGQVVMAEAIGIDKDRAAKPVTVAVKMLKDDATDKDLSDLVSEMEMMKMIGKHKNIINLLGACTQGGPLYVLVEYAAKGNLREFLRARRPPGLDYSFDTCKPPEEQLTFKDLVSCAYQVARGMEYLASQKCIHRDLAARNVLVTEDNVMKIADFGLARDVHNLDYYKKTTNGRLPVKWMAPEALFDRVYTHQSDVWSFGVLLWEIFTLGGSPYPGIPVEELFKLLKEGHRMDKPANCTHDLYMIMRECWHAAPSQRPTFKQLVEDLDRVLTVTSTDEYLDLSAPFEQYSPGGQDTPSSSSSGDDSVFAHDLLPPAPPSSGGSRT
The target in test [3] is FGFR4 (Homo sapiens (Human), UniProt P22455). In words: FGFR Enzymatic Assay (FRET peptide phosphorylation), FGFR4. The format is biochemical. The following applies: pre-incubated for 4 hours. How it is done:
as §1, §2, §3

For test [4], the target named is FGFR1 (Homo sapiens (Human), UniProt P11362). The test can be described thus: FGFR Enzymatic Assay (FRET peptide phosphorylation), FGFR1. As to conditions: pre-incubated for 4 hours.
Sequence of FGFR1 (P11362 22-822): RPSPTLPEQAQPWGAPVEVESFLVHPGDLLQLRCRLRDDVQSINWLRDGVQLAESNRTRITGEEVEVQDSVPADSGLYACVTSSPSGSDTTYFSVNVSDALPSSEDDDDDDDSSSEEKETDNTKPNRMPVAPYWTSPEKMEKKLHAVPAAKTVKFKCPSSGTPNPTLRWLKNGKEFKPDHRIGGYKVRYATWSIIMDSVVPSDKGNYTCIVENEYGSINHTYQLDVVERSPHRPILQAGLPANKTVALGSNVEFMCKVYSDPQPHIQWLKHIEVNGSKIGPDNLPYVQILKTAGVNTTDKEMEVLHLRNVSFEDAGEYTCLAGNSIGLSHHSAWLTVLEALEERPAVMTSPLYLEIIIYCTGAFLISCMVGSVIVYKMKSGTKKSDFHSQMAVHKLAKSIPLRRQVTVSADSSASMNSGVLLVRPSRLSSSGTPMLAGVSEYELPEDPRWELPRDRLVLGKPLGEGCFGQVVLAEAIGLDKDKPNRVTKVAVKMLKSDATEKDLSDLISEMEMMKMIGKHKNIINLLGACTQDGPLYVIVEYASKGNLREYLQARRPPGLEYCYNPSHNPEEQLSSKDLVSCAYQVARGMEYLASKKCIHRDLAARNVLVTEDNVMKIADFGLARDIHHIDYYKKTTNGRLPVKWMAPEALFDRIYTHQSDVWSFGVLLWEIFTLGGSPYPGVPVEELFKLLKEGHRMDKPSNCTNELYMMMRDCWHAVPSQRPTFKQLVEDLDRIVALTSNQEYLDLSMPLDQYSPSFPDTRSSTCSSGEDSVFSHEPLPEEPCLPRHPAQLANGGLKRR

Like-named read-outs stand apart in the source and are kept apart here.

In general, IC50 refers to the concentration that inhibits the measured activity by half.

Sequence of FGFR4 (P22455 22-802): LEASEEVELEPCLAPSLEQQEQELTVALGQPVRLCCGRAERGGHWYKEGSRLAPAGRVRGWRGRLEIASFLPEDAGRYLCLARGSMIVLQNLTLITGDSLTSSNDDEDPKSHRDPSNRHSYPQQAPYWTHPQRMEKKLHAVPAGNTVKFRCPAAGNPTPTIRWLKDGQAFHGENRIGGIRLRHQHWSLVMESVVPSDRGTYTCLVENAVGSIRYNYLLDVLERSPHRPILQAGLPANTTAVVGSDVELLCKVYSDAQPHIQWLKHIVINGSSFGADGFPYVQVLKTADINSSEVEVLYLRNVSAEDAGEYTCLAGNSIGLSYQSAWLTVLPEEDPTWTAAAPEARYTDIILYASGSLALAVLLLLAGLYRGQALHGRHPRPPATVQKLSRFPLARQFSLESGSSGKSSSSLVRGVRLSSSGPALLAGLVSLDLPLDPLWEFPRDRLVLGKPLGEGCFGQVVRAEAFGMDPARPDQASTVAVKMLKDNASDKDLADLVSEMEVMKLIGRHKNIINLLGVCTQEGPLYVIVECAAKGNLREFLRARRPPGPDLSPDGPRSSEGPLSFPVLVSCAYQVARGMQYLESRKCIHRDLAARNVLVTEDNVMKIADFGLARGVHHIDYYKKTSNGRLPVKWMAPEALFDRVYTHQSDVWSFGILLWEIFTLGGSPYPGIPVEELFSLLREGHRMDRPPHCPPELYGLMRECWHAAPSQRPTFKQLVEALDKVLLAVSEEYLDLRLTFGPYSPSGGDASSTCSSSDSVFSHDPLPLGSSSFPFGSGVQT
Sequence of FGFR2 (P21802 22-821): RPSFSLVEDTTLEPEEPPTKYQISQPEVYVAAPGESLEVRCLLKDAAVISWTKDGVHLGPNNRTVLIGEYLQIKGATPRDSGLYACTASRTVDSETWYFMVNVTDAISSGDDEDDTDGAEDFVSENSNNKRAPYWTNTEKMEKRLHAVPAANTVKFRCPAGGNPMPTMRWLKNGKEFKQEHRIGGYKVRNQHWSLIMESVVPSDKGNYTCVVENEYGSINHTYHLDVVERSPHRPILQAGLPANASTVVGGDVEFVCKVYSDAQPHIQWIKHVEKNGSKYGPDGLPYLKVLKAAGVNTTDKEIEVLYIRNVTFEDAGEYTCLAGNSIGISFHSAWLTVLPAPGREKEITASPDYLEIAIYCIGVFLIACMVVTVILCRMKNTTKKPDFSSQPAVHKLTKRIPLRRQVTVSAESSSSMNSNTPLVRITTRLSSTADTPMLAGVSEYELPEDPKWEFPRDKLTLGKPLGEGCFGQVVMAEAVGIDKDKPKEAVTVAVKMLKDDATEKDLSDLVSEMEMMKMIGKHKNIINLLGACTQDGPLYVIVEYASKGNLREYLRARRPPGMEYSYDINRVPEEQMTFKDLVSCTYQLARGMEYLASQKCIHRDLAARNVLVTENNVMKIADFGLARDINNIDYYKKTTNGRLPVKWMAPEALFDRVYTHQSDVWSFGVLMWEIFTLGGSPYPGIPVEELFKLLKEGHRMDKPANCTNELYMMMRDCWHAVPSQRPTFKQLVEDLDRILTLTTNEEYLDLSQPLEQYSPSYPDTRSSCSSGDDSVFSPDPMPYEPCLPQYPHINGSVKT

Turning to `COc1cc(OC)c(F)c(N2Cc3cnc(-c4cn(C)nc4C)cc3N(c3ccc(-n4cccn4)cc3)C2=O)c1F` [Example 77, 1-(4-(1H-pyrazol-1-yl)phenyl)-3-(2,6-difluoro-3,5-dimethoxyphenyl)-7-(1,3-dimethyl-1H-pyrazol-4-yl)-3,4-dihydropyrido[4,3-d]pyrimidin-2(1H)-one], the IC50 in test [1] is below 10 nM; in test [2], below 10 nM; in test [3], 30 to 200 nM; in test [4] (FGFR1 IC50 (nM)) it was 10 to 30 nM. In addition, the “FGFR1/FGFR3 IC50 ratio” value in test [2] is recorded as above 5. Also, in test [2], the “FGFR4/FGFR3 IC50 ratio” value is above 10.

On to `COc1cc(OC)c(F)c(N2Cc3cnc(-c4cn(C)nc4C)cc3N(c3cc(F)cc(C#N)c3)C2=O)c1F` [Example 78, 3-(3-(2,6-difluoro-3,5-dimethoxyphenyl)-7-(1,3-dimethyl-1H-pyrazol-4-yl)-2-oxo-3,4-dihydropyrido[4,3-d]pyrimidin-1(2H)-yl)-5-fluorobenzonitrile], for which the IC50 in test [1] is 10 to 30 nM; in test [2], below 10 nM; in test [3], 30 to 200 nM; in test [4] (FGFR1 IC50 (nM)), 30 to 200 nM. In test [2], the “FGFR1/FGFR3 IC50 ratio” value is recorded as above 5. Besides, the “FGFR4/FGFR3 IC50 ratio” value in test [2] is above 3.

For `COc1cc(OC)c(F)c(N2Cc3cnc(-c4cn(C)nc4C)cc3N(c3ccc(C#N)cn3)C2=O)c1F` [Example 79, 6-(3-(2,6-difluoro-3,5-dimethoxyphenyl)-7-(1,3-dimethyl-1H-pyrazol-4-yl)-2-oxo-3,4-dihydropyrido[4,3-d]pyrimidin-1(2H)-yl)nicotinonitrile], the IC50 in test [1] was below 10 nM; in test [2] it was below 10 nM; in test [3] it was 30 to 200 nM; in test [4] (FGFR1 IC50 (nM)), 30 to 200 nM. In test [2], the “FGFR1/FGFR3 IC50 ratio” value is recorded as above 5. Moreover, the “FGFR4/FGFR3 IC50 ratio” value in test [2] is reported as above 3.

For `COc1cc(N2C(=O)N(c3c(F)c(OC)cc(OC)c3F)Cc3cnc(-c4cn(C)nc4C)cc32)ccc1C#N` [Example 81, 4-(3-(2,6-difluoro-3,5-dimethoxyphenyl)-7-(1,3-dimethyl-1H-pyrazol-4-yl)-2-oxo-3,4-dihydropyrido[4,3-d]pyrimidin-1(2H)-yl)-2-methoxybenzonitrile], the IC50 is 10 to 30 nM in test [1], 10 to 30 nM in test [2], above 200 nM in test [3] and 30 to 200 nM in test [4] (FGFR1 IC50 (nM)). Further, the “FGFR1/FGFR3 IC50 ratio” value in test [2] was above 5. For the same compound, in test [2], the “FGFR4/FGFR3 IC50 ratio” value is above 10.

For the compound `COc1cc(OC)c(F)c(N2Cc3cnc(-c4cn(C)nc4C)cc3N(C3CC3)C2=O)c1F` [Example 83, 1-cyclopropyl-3-(2,6-difluoro-3,5-dimethoxyphenyl)-7-(1,3-dimethyl-1H-pyrazol-4-yl)-3,4-dihydropyrido[4,3-d]pyrimidin-2(1H)-one], the IC50 was 30 to 200 nM in test [1], 10 to 30 nM in test [2], above 200 nM in test [3] and 30 to 200 nM in test [4] (FGFR1 IC50 (nM)). For the same compound, the “FGFR1/FGFR3 IC50 ratio” value in test [2] is recorded as above 5. For the same compound, in test [2], the “FGFR4/FGFR3 IC50 ratio” value is reported as above 5.

Turning to `COc1cc(OC)c(F)c(N2Cc3cnc(-c4cn(C)nc4C)cc3N(Cc3cncnc3)C2=O)c1F` [Example 84, 3-(2,6-difluoro-3,5-dimethoxyphenyl)-7-(1,3-dimethyl-1H-pyrazol-4-yl)-1-(pyrimidin-5-ylmethyl)-3,4-dihydropyrido[4,3-d]pyrimidin-2(1H)-one], the half-maximal inhibitory concentration (IC50) was below 10 nM in test [1], below 10 nM in test [2], 30 to 200 nM in test [3] and 30 to 200 nM in test [4] (FGFR1 IC50 (nM)). Besides, in test [2], the “FGFR1/FGFR3 IC50 ratio” value is above 5. For the same compound, the “FGFR4/FGFR3 IC50 ratio” value in test [2] is given as above 5.

For `COc1cc(OC)c(F)c(N2Cc3cnc(-c4cn(C)nc4C)cc3N(Cc3cnccn3)C2=O)c1F` [Example 85, 3-(2,6-difluoro-3,5-dimethoxyphenyl)-7-(1,3-dimethyl-1H-pyrazol-4-yl)-1-(pyrazin-2-ylmethyl)-3,4-dihydropyrido[4,3-d]pyrimidin-2(1H)-one], the IC50 in test [1] was 10 to 30 nM; in test [2], below 10 nM; in test [3] it was 30 to 200 nM; in test [4] (FGFR1 IC50 (nM)) it was 30 to 200 nM. Besides, the “FGFR1/FGFR3 IC50 ratio” value in test [2] is above 5. Also, in test [2], the “FGFR4/FGFR3 IC50 ratio” value is recorded as above 10.

As for `COc1cc(OC)c(F)c(N2Cc3cnc(-c4cn(C)nc4C)cc3N(c3cncc(C)n3)C2=O)c1F` [Example 87, 3-(2,6-difluoro-3,5-dimethoxyphenyl)-7-(1,3-dimethyl-1H-pyrazol-4-yl)-1-(6-methylpyrazin-2-yl)-3,4-dihydropyrido[4,3-d]pyrimidin-2(1H)-one], the IC50 in test [1] is below 10 nM; in test [2], below 10 nM; in test [3] it was 30 to 200 nM; in test [4] (FGFR1 IC50 (nM)) it was 30 to 200 nM. In test [2], the “FGFR1/FGFR3 IC50 ratio” value is listed as above 5. In addition, in test [2], the “FGFR4/FGFR3 IC50 ratio” value is listed as above 10.

Consider `COc1cc(OC)c(F)c(N2Cc3cnc(-c4cn(C)nc4C)cc3N(Cc3cccnn3)C2=O)c1F` [Example 88, 3-(2,6-difluoro-3,5-dimethoxyphenyl)-7-(1,3-dimethyl-1H-pyrazol-4-yl)-1-(pyridazin-3-ylmethyl)-3,4-dihydropyrido[4,3-d]pyrimidin-2(1H)-one], for which the IC50 in test [1], in test [2], in test [3] and in test [4] (read-out: FGFR1 IC50) was below 10 nM each time. In test [2], the “FGFR1/FGFR3 IC50 ratio” value was above 5. In addition, the “FGFR4/FGFR3 IC50 ratio” value in test [2] is above 10.

Consider `COc1cc(OC)c(F)c(N2Cc3cnc(-c4cn(C)nc4C)cc3N(c3cccc(-c4cnnn4C)c3)C2=O)c1F` [Example 89, 3-(2,6-difluoro-3,5-dimethoxyphenyl)-7-(1,3-dimethyl-1H-pyrazol-4-yl)-1-(3-(1-methyl-1H-1,2,3-triazol-5-yl)phenyl)-3,4-dihydropyrido[4,3-d]pyrimidin-2(1H)-one], for which the IC50 in test [1] is below 10 nM; in test [2], below 10 nM; in test [3], 30 to 200 nM; in test [4] (FGFR1 IC50 (nM)), 10 to 30 nM. Moreover, the “FGFR1/FGFR3 IC50 ratio” value in test [2] is above 5. The “FGFR4/FGFR3 IC50 ratio” value in test [2] is above 10.

With `COc1cc(OC)c(F)c(N2Cc3cnc(-c4cn(C)nc4C)cc3N(C3(C#N)CC3)C2=O)c1F` [Example 91, 1-(3-(2,6-difluoro-3,5-dimethoxyphenyl)-7-(1,3-dimethyl-1H-pyrazol-4-yl)-2-oxo-3,4-dihydropyrido[4,3-d]pyrimidin-1(2H)-yl)cyclopropanecarbonitrile], the concentration for half-maximal inhibition (IC50) is below 10 nM in test [1], below 10 nM in test [2], 30 to 200 nM in test [3] and 30 to 200 nM in test [4] (FGFR1 IC50 (nM)). Further, the “FGFR1/FGFR3 IC50 ratio” value in test [2] is recorded as above 5. In addition, the “FGFR4/FGFR3 IC50 ratio” value in test [2] was above 5.

With `COc1cc(OC)c(F)c(N2Cc3cnc(-c4cn(C)nc4C)cc3N(Cc3cc(C(C)C)on3)C2=O)c1F` [Example 93, 3-(2,6-difluoro-3,5-dimethoxyphenyl)-7-(1,3-dimethyl-1H-pyrazol-4-yl)-1-((5-isopropylisoxazol-3-yl)methyl)-3,4-dihydropyrido[4,3-d]pyrimidin-2(1H)-one], the IC50 was below 10 nM in test [1], below 10 nM in test [2], 30 to 200 nM in test [3] and 30 to 200 nM in test [4] (FGFR1 IC50 (nM)). Moreover, in test [2], the “FGFR1/FGFR3 IC50 ratio” value is listed as above 5. For the same compound, the “FGFR4/FGFR3 IC50 ratio” value in test [2] is recorded as above 5.

For the compound `COc1cc(OC)c(F)c(N2Cc3cnc(-c4cn(C)nc4C)cc3N(Cc3csc(C)n3)C2=O)c1F` [Example 95, 3-(2,6-difluoro-3,5-dimethoxyphenyl)-7-(1,3-dimethyl-1H-pyrazol-4-yl)-1-((2-methylthiazol-4-yl)methyl)-3,4-dihydropyrido[4,3-d]pyrimidin-2(1H)-one], the IC50 in test [1] is below 10 nM; in test [2] it was below 10 nM; in test [3], 30 to 200 nM; in test [4] (FGFR1 IC50 (nM)), 10 to 30 nM. Also, the “FGFR1/FGFR3 IC50 ratio” value in test [2] was above 5. For the same compound, the “FGFR4/FGFR3 IC50 ratio” value in test [2] is above 10.

Consider `COc1cc(OC)c(F)c(N2Cc3cnc(-c4cn(C)nc4C)cc3N(c3ccc(CC#N)cc3)C2=O)c1F` [Example 97, 2-(4-(3-(2,6-difluoro-3,5-dimethoxyphenyl)-7-(1,3-dimethyl-1H-pyrazol-4-yl)-2-oxo-3,4-dihydropyrido[4,3-d]pyrimidin-1(2H)-yl)phenyl)acetonitrile], for which the IC50 in test [1] is below 10 nM; in test [2], below 10 nM; in test [3], 30 to 200 nM; in test [4] (FGFR1 IC50 (nM)), 30 to 200 nM. The “FGFR1/FGFR3 IC50 ratio” value in test [2] is given as above 5. Besides, in test [2], the “FGFR4/FGFR3 IC50 ratio” value is given as above 10.

As to `COc1cc(OC)c(F)c(N2Cc3cnc(-c4cn(C)nc4C)cc3N(c3ccc(S(C)(=O)=O)cc3)C2=O)c1F` [Example 98, 3-(2,6-difluoro-3,5-dimethoxyphenyl)-7-(1,3-dimethyl-1H-pyrazol-4-yl)-1-(4-(methylsulfonyl)phenyl)-3,4-dihydropyrido[4,3-d]pyrimidin-2(1H)-one], the IC50 in test [1] lay in the range of 10 to 30 nM; in test [2] it was 10 to 30 nM; in test [3] it was 30 to 200 nM; in test [4] (FGFR1 IC50 (nM)), 30 to 200 nM. Moreover, the “FGFR1/FGFR3 IC50 ratio” value in test [2] is above 5. The “FGFR4/FGFR3 IC50 ratio” value in test [2] is listed as above 10.

As for `COc1cc(OC)c(F)c(N2Cc3cnc(-c4cn(C)nc4C)cc3N(c3cccc(F)c3)C2=O)c1F` [Example 99, 3-(2,6-difluoro-3,5-dimethoxyphenyl)-7-(1,3-dimethyl-1H-pyrazol-4-yl)-1-(3-fluorophenyl)-3,4-dihydropyrido[4,3-d]pyrimidin-2(1H)-one], the IC50 was below 10 nM in test [1], below 10 nM in test [2], 30 to 200 nM in test [3] and 30 to 200 nM in test [4] (FGFR1 IC50 (nM)). For the same compound, the “FGFR1/FGFR3 IC50 ratio” value in test [2] is reported as above 5. The “FGFR4/FGFR3 IC50 ratio” value in test [2] was above 5.

These data come from patent US9708318B2, “Bicyclic heterocycles as FGFR4 inhibitors” (Incyte Corporation, priority 2015, dated 2017).
